According to ChEMBL document CHEMBL5465560, “Selectivity Literature for EUbOPEN Chemogenomic Library” (2024):

Legend:
[1] = molecular target: Serine/threonine-protein kinase 10 (Homo sapiens) (UniProt O94804); test: Selectivity interaction (Kinase panel (KiNativ target engagement assay in Jurkat cells)) EUB0001635a STK10; format: cell-based; settings: Selectivity number of off-targets 0.0, Selectivity number of targets 233.0, Source Knowledge https://www.sciencedirect.com/science/article/pii/S2451945619300674?via%3Dihub, at 1 µM
[2] = molecular target: Bone morphogenetic protein receptor type-1A (Homo sapiens, UniProt P36894); test: Selectivity interaction (KinomeScan (DiscoverX)) EUB0000229b BMPR1A; settings: at 10 µM
[3] = molecular target: MAP kinase-activated protein kinase 2 (Homo sapiens, UniProt P49137); test: Selectivity interaction (KinomeScan (DiscoverX)) EUB0000229b MAPKAPK2; settings: at 10 µM
[4] = molecular target: Serine/threonine-protein kinase pim-3 (Homo sapiens) (UniProt Q86V86); test: Selectivity interaction (KinomeScan (DiscoverX)) EUB0000229b PIM3; settings: at 10 µM
[5] = molecular target: T1, Serine/threonine-protein kinase 17B (Homo sapiens) (UniProt O94768); test: Selectivity interaction (KinomeScan (DiscoverX)) EUB0000045b STK17B
T1 sequence (whole entry): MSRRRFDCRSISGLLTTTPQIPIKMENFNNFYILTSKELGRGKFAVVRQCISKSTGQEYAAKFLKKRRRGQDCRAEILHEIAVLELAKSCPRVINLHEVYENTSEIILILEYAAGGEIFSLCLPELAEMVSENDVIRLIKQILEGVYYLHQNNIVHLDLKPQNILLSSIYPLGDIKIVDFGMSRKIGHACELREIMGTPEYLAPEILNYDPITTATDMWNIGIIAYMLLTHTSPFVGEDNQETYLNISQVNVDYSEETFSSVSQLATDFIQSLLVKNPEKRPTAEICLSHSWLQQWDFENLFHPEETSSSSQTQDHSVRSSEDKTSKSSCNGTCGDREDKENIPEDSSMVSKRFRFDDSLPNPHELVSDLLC

[6] = molecular target: Casein kinase I isoform alpha (Homo sapiens, UniProt P48729); test: Selectivity interaction (KinomeScan (DiscoverX)) EUB0001079a CSNK1A1; settings: at 1 µM
Chain of Casein kinase I isoform alpha (P48729 2-337 limits assumed): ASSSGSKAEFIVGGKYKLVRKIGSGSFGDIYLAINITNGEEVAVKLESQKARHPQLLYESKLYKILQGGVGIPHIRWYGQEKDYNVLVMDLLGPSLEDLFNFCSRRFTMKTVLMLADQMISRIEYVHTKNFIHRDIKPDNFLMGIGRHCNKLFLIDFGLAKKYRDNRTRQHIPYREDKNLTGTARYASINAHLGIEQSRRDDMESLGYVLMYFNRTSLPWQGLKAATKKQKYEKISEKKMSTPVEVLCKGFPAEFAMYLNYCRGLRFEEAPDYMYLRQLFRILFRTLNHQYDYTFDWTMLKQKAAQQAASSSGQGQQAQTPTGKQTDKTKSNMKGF

[7] = molecular target: DNA (cytosine-5)-methyltransferase 1 (Homo sapiens) (UniProt P26358); test: Selectivity interaction (Methyltransferase screen (radiometric assays, panel of 8 PRMTs, 21 protein lysine methyltransferases, 3 DNA methyltransferases, and one RNA methyltransferase)) EUB0000272b DNMT1
Chain of DNA (cytosine-5)-methyltransferase 1 (Homo sapiens) (P26358 whole entry): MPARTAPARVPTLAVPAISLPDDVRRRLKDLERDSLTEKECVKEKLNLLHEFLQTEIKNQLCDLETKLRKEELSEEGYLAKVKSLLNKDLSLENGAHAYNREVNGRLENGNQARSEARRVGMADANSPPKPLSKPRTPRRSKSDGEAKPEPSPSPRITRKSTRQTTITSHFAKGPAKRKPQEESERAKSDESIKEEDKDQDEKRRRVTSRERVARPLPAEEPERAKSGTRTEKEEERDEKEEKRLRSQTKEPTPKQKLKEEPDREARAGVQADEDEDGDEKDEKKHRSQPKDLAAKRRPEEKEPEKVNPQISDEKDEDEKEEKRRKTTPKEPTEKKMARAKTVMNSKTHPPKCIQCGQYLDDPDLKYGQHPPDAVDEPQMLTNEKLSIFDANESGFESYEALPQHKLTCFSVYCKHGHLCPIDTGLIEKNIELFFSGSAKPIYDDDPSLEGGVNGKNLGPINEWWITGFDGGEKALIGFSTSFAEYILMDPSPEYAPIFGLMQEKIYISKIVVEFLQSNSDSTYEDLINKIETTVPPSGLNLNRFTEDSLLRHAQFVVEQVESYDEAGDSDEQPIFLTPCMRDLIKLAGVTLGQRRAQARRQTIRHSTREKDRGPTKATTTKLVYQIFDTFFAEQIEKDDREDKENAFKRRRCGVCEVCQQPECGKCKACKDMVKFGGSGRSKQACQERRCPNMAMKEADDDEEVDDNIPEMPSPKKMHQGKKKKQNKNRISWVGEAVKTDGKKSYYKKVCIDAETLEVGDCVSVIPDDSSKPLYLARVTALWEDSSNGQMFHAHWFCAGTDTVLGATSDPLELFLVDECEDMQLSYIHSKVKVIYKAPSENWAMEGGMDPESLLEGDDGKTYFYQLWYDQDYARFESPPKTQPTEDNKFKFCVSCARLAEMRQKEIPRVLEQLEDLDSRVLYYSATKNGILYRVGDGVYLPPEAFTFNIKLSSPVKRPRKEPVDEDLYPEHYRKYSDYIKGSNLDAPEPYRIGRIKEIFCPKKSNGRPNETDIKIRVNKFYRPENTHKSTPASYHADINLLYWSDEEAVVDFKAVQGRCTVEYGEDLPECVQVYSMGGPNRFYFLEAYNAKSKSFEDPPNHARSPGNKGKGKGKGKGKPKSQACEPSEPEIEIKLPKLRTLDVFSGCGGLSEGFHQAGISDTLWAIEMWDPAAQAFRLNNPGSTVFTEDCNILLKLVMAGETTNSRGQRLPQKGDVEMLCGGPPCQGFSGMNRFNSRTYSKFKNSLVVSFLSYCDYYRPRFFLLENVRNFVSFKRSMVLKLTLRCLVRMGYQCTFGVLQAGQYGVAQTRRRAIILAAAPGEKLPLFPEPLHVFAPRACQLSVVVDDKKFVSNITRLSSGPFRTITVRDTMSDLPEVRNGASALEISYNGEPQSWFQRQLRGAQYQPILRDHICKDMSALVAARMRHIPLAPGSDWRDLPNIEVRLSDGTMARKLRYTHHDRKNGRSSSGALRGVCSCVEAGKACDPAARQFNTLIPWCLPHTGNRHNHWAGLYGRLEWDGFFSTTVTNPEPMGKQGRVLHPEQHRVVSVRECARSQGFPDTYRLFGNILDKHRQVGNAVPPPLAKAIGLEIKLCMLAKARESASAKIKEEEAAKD

[8] = molecular target: Mitogen-activated protein kinase 11 (Homo sapiens) (UniProt Q15759); test: Selectivity interaction (KinomeScan (DiscoverX)) EUB0001049a MAPK11; settings: at 1 µM
[9] = molecular target: T2, Activin receptor type-1B (Homo sapiens) (UniProt P36896); test: Selectivity interaction (Upstate Kinase Profiler service (Millipore)) EUB0000056c ACVR1B; settings: at 1 µM
T2 sequence (whole entry): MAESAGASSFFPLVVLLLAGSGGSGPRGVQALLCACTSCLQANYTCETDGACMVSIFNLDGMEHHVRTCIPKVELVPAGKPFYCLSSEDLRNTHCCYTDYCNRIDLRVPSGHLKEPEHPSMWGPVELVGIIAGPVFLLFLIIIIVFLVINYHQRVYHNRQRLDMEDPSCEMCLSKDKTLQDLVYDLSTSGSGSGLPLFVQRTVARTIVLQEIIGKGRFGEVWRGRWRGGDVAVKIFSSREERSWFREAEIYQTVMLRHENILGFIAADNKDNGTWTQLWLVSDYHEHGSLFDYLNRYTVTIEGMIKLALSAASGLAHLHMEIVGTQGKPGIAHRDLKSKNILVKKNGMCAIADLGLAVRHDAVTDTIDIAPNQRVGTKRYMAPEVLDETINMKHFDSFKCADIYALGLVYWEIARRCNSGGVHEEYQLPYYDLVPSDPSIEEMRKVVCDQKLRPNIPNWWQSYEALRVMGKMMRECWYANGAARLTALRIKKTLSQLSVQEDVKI

[10] = molecular target: Serine/threonine-protein kinase 26 (Homo sapiens, UniProt Q9P289); settings: PBMC, at 1 µM
Chain of Serine/threonine-protein kinase 26 (Q9P289 2-416 limits assumed): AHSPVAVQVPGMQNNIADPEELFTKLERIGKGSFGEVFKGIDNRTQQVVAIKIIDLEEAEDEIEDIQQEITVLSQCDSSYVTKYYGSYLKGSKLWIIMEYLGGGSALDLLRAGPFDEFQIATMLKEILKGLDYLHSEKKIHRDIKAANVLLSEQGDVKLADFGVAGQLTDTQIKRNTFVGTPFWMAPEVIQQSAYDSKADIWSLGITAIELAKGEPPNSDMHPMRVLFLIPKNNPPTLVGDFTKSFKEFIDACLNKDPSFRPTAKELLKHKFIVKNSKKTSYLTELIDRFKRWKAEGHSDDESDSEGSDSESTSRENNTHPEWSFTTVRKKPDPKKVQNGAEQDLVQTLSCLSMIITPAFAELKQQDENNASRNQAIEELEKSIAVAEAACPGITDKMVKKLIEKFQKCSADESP

[11] = molecular target: Serine/threonine-protein kinase pim-2 (Homo sapiens, UniProt Q9P1W9); test: Selectivity interaction (Kinase panel (literature)) EUB0001199aCl PIM2; settings: at 1 µM
Chain of Serine/threonine-protein kinase pim-2 (Q9P1W9 whole entry, looked up): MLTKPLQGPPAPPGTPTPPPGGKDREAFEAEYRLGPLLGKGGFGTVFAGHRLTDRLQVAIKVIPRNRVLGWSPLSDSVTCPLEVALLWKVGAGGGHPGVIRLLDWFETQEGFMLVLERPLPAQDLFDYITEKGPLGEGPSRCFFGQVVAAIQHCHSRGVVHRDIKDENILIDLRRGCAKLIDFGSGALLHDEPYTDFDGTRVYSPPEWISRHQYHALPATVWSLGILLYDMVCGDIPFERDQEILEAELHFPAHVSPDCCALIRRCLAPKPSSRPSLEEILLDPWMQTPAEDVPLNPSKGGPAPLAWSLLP

[12] = molecular target: Kappa-type opioid receptor (Homo sapiens, UniProt P41145); test: Selectivity interaction (Panel of kinases, GPCRs, ion channels and transporters (enzymatic assay)) EUB0000266bCl OPRK1
Chain of Kappa-type opioid receptor (P41145 whole entry): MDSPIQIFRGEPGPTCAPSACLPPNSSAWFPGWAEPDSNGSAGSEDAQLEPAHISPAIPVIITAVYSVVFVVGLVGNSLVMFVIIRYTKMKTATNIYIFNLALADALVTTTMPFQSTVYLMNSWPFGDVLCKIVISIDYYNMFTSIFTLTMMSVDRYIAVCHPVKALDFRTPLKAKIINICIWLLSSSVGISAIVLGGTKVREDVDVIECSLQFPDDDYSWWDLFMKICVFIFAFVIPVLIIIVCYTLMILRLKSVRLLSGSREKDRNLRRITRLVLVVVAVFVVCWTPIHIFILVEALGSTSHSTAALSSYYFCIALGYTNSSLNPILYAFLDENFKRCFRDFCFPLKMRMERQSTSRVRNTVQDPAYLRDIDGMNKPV

[13] = molecular target: Vascular endothelial growth factor receptor 1 (Homo sapiens) (UniProt P17948); test: Selectivity interaction (Kinase panel (Invitrogen)) EUB0000639a FLT1; settings: at 200 nM
Chain of Vascular endothelial growth factor receptor 1 (Homo sapiens) (P17948 whole entry): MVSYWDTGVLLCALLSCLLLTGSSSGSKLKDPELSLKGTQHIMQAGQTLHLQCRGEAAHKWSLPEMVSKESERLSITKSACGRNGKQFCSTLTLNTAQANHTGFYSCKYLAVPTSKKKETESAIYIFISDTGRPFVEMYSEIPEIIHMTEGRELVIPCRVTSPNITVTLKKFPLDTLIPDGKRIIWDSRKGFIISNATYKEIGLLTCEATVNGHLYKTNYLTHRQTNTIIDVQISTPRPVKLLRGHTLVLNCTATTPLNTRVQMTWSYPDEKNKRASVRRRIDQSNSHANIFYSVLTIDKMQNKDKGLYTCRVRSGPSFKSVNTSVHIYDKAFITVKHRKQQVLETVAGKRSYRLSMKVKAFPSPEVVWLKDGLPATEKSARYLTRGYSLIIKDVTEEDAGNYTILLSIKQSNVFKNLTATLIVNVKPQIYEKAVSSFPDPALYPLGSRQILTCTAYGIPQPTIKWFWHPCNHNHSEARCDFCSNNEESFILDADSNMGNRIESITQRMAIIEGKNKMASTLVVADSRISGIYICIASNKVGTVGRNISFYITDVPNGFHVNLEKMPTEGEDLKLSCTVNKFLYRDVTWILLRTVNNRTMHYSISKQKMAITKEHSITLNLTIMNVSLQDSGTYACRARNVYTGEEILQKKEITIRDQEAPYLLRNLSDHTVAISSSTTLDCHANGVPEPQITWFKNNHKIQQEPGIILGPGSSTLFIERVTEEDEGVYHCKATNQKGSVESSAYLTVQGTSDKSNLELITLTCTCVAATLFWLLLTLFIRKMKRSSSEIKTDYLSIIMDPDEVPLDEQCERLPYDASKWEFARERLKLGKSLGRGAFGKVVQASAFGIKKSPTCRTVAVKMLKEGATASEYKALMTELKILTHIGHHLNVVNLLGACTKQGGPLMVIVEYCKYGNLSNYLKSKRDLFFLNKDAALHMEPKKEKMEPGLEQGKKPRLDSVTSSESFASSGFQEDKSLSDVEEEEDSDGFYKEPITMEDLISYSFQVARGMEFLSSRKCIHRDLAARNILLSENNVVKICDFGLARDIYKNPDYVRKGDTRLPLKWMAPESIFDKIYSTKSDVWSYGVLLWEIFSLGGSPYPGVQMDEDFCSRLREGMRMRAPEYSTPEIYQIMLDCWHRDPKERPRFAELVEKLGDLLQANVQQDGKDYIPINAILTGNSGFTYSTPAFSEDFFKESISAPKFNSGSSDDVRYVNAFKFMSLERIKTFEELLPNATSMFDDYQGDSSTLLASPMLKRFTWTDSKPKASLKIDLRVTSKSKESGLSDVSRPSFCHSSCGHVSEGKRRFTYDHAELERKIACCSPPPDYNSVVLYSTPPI

[14] = molecular target: T3, Rhodopsin kinase GRK1 (Homo sapiens) (UniProt Q15835); test: Selectivity interaction (KinomeScan (DiscoverX)) EUB0000655a GRK1; settings: at 10 µM
T3 sequence (whole entry): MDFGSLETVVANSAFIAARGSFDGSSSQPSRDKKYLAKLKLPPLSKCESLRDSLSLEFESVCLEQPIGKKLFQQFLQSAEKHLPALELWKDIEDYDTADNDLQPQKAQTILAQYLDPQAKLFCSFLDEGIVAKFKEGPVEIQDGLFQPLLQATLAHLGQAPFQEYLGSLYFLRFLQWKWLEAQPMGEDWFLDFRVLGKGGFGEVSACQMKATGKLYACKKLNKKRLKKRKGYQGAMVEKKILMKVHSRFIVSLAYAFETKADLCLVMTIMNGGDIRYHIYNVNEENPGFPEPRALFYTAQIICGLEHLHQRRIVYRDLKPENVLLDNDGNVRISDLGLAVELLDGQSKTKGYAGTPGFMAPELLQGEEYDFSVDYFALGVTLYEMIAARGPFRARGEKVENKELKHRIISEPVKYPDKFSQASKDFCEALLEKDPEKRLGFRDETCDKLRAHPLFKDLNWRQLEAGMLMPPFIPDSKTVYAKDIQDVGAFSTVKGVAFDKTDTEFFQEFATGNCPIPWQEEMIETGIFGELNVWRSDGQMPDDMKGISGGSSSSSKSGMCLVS

[15] = molecular target: Serine/threonine-protein kinase 38 (Homo sapiens) (UniProt Q15208); test: Selectivity interaction (KinomeScan (DiscoverX)) EUB0000655a STK38; settings: at 10 µM
Chain of Serine/threonine-protein kinase 38 (Homo sapiens) (Q15208 2-465 limits assumed): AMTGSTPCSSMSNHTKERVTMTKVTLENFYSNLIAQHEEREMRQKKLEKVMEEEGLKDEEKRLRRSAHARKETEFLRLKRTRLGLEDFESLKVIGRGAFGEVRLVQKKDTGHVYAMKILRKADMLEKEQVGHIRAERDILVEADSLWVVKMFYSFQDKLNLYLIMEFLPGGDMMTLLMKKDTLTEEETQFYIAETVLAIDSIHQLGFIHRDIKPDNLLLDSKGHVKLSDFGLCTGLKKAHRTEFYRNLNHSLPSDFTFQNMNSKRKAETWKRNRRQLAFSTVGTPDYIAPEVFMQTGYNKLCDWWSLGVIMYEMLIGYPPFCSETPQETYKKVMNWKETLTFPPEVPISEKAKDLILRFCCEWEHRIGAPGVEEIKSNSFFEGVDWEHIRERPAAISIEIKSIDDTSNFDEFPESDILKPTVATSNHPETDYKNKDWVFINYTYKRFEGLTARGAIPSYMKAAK

[16] = molecular target: Mitogen-activated protein kinase 7 (Homo sapiens) (UniProt Q13164); test: Selectivity interaction (KinomeScan (DiscoverX)) EUB0000699a MAPK7; settings: at 10 µM
[17] = molecular target: Tyrosine-protein kinase Blk (Homo sapiens) (UniProt P51451); settings: at 10 µM

Work on `C=CC(=O)Nc1ccc(C(=O)Nc2[nH]nc3c2CN(C(=O)N[C@H](CN(C)C)c2ccccc2)C3(C)C)cc1` yielded a % of engagement [1] of -2.2%.

For `COc1cc(N(C)c2ccnc3ccc(C(F)(F)F)cc23)cc(OC)c1OC`, the % binding [2] was 76%, the % binding [3] was 93% and the % binding [4] was 78%.

`C=CC(=O)Nc1cc(-n2c(=O)ccc3cnc4ccc(-c5ccc(NS(C)(=O)=O)cc5)cc4c32)ccc1C` gave a % of control ([5]; at 1 µM) of 100% and a % of control ([5]; at 10 µM) of 100%.

Work on `Nc1cnc(N2CCc3cc(S(=O)(=O)Nc4c(F)cc(Cl)cc4F)cc(N4CCCC4=O)c32)nc1` [TP-020n] yielded a % of control [6] of 100%.

Compound `Cc1cc(C)cc([C@H]2c3cc(C)ccc3NC(=O)CN2C(=O)c2ccc(Br)s2)c1` has a % of activity ([7]; at 1 µM) of 98.7% and a % of activity ([7]; at 10 µM) of 104%.

`COc1cc(Nc2nc(C)cc(-c3cnn4nc(OC)ccc34)n2)cc(C(F)(F)F)c1` showed a % of control [8] of 100%.

`Cc1ccc(-c2ccc3c(ccc4sc5c(c43)NC[C@@H](C)NC5=O)n2)cn1` showed a % of inhibition [9] of 9%.

Work on `N#Cc1cccc(-c2c[nH]c3ncnc(N4CCOCC4)c23)c1` yielded a % of inhibition [10] of 39%.

In the case of `CN1Cc2nccc(-c3cn(C)nc3-c3ccc(F)cc3)c2C1=O`, the % of inhibition [11] is reported as -2%.

Compound `CCn1c(-c2nc3cc(C(=O)N4CCCC(N)C4)ccc3n2C)cc2ccccc21` (centres undefined) has a pXC50 [12] of less than 4 M.

Compound `CC[C@@H]1[C@H](F)C(=O)N[C@@H]1COc1nccc2cc(C(N)=O)c(OC)cc12` [ZIMLOVISERTIB] has a % of inhibition [13] of 3.08%.

Work on `CN(C)CCOc1ccc(-c2nc(-c3ccncc3)c(-c3ccc4c(c3)CC/C4=N\O)[nH]2)cc1` yielded a % of control [14] of 91% and a % of control [15] of 90%.

`CCN(CC)CCCCNc1ncc2cc(-c3cc(OC)cc(OC)c3)c(NC(=O)NC(C)(C)C)nc2n1` gave a % of control [16] of 36% and a % of control [17] of 100%.
